Consider 74 compounds from patent publication US20120165304A1, “6,7,8,9-Tetrahydro-5H-1,4,7,10a-tetraaza-cyclohept[f]indene derivatives, pharmaceutical compositions containing these compounds, their use and processes for preparing them” (BOEHRINGER INGELHEIM INTERNATIONAL GMBH, priority 2008, published 2012).

As usually defined, the EC50 is the concentration that produces a half-maximal response. A high value points to weaker potency.

In the assay the target is human 5-HT2C receptor (Homo sapiens, UniProt P28335, I156V/I160V/N158S). Briefly: cell-based.
Sequence of human 5-HT2C receptor (P28335 33-458 I156V/N158S/I160V limits assumed): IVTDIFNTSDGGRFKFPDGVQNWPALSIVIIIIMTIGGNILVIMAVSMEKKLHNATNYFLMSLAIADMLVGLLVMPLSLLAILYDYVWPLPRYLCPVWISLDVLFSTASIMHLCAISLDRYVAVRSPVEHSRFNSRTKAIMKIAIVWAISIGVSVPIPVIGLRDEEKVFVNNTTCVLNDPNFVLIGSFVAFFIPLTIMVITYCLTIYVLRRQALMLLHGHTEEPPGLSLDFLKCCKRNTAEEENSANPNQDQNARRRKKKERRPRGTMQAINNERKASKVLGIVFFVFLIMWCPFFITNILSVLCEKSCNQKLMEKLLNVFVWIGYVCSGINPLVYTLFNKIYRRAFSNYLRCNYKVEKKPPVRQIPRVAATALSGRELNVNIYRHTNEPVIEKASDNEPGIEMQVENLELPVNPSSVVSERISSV
As for `Fc1ccc(Cl)c(OCC2CN(c3c4c(nc5ccnn35)CCNCC4)C2)c1` [Example 15.15], a half-maximal effect (EC50) was put at 2 nM.
In turn, `CCN1CCCC1CNC(=O)C1CN(c2c3c(nc4ccnn24)CCNCC3)C1` (centres unmarked) [Example 37.90] returned a 50% effective concentration (EC50) of 12 nM. Compared with the last compound, the EC50 is about 6-fold higher.
Consider `CC1(C)CCN(C(=O)C2CN(c3c4c(nc5ccnn35)CCNCC4)C2)CC1` [Example 31.47], for which the concentration for a half-maximal effect (EC50) turned out to be 21 nM.
As for `O=C(C1CN(c2c3c(nc4ccnn24)CCNCC3)C1)N1CCN(c2ccc(F)cc2)CC1` [Example 37.8], the 50% effective concentration (EC50) was determined as 8 nM.
`COC[C@@H]1CCCN1c1c2c(nc3ccnn13)CCNCC2` [Example 1.11] showed an EC50 of 504 nM.
`O=C(NCCC1CCCC1)C1CN(c2c3c(nc4ccnn24)CCNCC3)C1` [Example 37.62] had an EC50 of 10 nM.
Take `Brc1cccc(OC2CN(c3c4c(nc5ccnn35)CCNCC4)C2)c1` [Example 35.14]: the EC50 was determined as 477 nM. Against the preceding compound, the EC50 is about 48-fold higher.
Compound `CNCCN(C)C(=O)C1CN(c2c3c(nc4ccnn24)CCNCC3)C1` [Example 37.20] displayed an EC50 of 26 nM. This EC50 lies about 18-fold lower than the previous one.
The value for `O=C(C1CN(c2c3c(nc4ccnn24)CCNCC3)C1)N1CCC2(CC1)Oc1ccccc1O2` [Example 31.186] was 68 nM.
The value for `O=C(C1CN(c2c3c(nc4ccnn24)CCNCC3)C1)N1CCC(c2cccc(F)c2)C1` (centres unmarked) [Example 31.118] was 11 nM.
The value for `CCN(Cc1ccccc1)C(=O)C1CN(c2c3c(nc4ccnn24)CCNCC3)C1` [Example 31.23] was 346 nM.
The compound `CN1CCc2nc3ccnn3c(N3CC(C(=O)N4CC(N(C)C)C4)C3)c2CC1` [Example 36.48] yielded a concentration for a half-maximal effect (EC50) of 269 nM.
The compound `OC1CCN(c2c3c(nc4ccnn24)CCNCC3)CC1` [Example 1.36] returned a concentration for a half-maximal effect (EC50) of 1850 nM.
As to `OC1CN(c2c3c(nc4ccnn24)CCNCC3)C1` [Example 1.2], the EC50 is 127 nM.
For the compound `c1ccc(C2OCCN(c3c4c(nc5ccnn35)CCNCC4)C2c2ccccc2)cc1` (centres unmarked) [Example 1.40], the EC50 turned out to be 1290 nM. Compared with the last compound, the EC50 is about 10-fold higher.
As to `Clc1ccncc1OC1CN(c2c3c(nc4ccnn24)CCNCC3)C1` [Example 35.35], the concentration giving a half-maximal response (EC50) stood at 67 nM. This EC50 lies about 19-fold lower than the previous one.
The value for `CN(CCc1ccc2ccccc2c1)C(=O)C1CN(c2c3c(nc4ccnn24)CCNCC3)C1` [Example 31.71] was 366 nM; that for `O=C(C1CN(c2c3c(nc4ccnn24)CCNCC3)C1)N1CCN(CC2CC2)CC1` [Example 37.17] was 3 nM.
As for `O=C(C1CN(c2c3c(nc4c(Br)cnn24)CCNCC3)C1)N1CCC2(CCOC2)CC1` [Example 31.137], it took 71 nM to reach a half-maximal effect (EC50).
In the case of `FC(F)(F)c1cccc(OC2CN(c3c4c(nc5ccnn35)CCNCC4)C2)c1` [Example 1.7], a half-maximal effect (EC50) was put at 42 nM.
As to `c1cc2nc3c(c(N4CC(OCC5CCCCC5)C4)n2n1)CCNCC3` [Example 20.4], the EC50 was 543 nM.
Turning to `Cc1cnn2c(N3CC(C(=O)N4CCC5(CCCC5)C4)C3)c3c(nc12)CCNCC3` [Example 31.248], the EC50 is 25 nM.
The value for `FC(F)(F)c1ccnc(OC2CN(c3c4c(nc5ccnn35)CCNCC4)C2)n1` [Example 35.48] was 526 nM.
The compound `c1ccc(COC2CN(c3c4c(nc5ccnn35)CCNCC4)C2)cc1` [Example 20, 10-(3-Benzyloxy-azetidin-1-yl)-6,7,8,9-tetrahydro-5H-1,4,7,10a-tetraaza-cyclohepta[f]indene] yielded an EC50 of 350 nM.
As to `O=C(NCc1ccc(OC(F)F)cc1)C1CN(c2c3c(nc4ccnn24)CCNCC3)C1` [Example 37.97], the 50% effective concentration (EC50) was determined as 8 nM.
In turn, `COc1ccc(OC2CN(c3c4c(nc5c(C)cnn35)CCNCC4)C2)cc1` [Example 27.2] returned an EC50 of 55 nM.
As for `CCCN(C)C(=O)C1CN(c2c3c(nc4ccnn24)CCNCC3)C1` [Example 31.66], it took 360 nM to reach a half-maximal effect (EC50).
Take `c1ccc(OCC2CN(c3c4c(nc5ccnn35)CCNCC4)C2)nc1` [Example 15.28]: the EC50 turned out to be 24 nM.
As for `CC(=O)NC1CCN(C(=O)C2CN(c3c4c(nc5ccnn35)CCNCC4)C2)CC1` [Example 37.29], a half-maximal effect (EC50) was put at 10 nM.
With `O=C(C1CN(c2c3c(nc4ccnn24)CCNCC3)C1)N1CCC(c2cc(Cl)cc(Cl)c2)CC1` [Example 31.214], the half-maximal effective concentration (EC50) came out at 471 nM. This EC50 lies about 47-fold higher than the previous one.
As for `CN1CCc2nc3ccnn3c(N3CC(C(=O)N4CCC(F)CC4)C3)c2CC1` [Example 36.29], the EC50 came out at 279 nM.
Compound `CC1CCCN1c1c2c(nc3ccnn13)CCNCC2` (centres unmarked) [Example 1.13] had an EC50 of 2300 nM.
On to `O=C(C1CN(c2c3c(nc4ccnn24)CCNCC3)C1)N1CCC(F)CC1` [Example 31.206], for which the response was half-maximal at 146 nM (EC50).
On to `O=C(NCC1CCOC1)C1CN(c2c3c(nc4ccnn24)CCNCC3)C1` (centres unmarked) [Example 37.61], for which the EC50 came to 64 nM.
The compound `O=C(C1CN(c2c3c(nc4ccnn24)CCNCC3)C1)N1CC[C@H](F)C1` [Example 31.202] registered an EC50 of 162 nM.
For `CN1CCc2nc3ccnn3c(N3CC(C(=O)N4CCN(C(=O)C5CC5)CC4)C3)c2CC1` [Example 36.43], the response was half-maximal at 264 nM (EC50). Compared with the last compound, the EC50 is about 1.6-fold higher.
As to `FC(F)(F)c1ccc2c(c1)nc(C1CN(c3c4c(nc5ccnn35)CCNCC4)C1)n2Cc1ccccc1` [Example 34.34], the EC50 stood at 2090 nM. This EC50 lies about 7.9-fold higher than the previous one.
The compound `CN1CCc2nc3ccnn3c(N3CC(C(=O)N4CCN(C(=O)C5CCCC5)CC4)C3)c2CC1` [Example 36.58] registered a concentration for a half-maximal effect (EC50) of 447 nM.
In the case of `Fc1cccc(OC2CN(c3c4c(nc5ccnn35)CCNCC4)C2)c1` [Example 1.9], the EC50 came to 26 nM.
As for `c1cncc(OC2CN(c3c4c(nc5ccnn35)CCNCC4)C2)c1` [Example 35.42], the concentration giving a half-maximal response (EC50) worked out at 212 nM. Against the preceding compound, the EC50 is about 8.2-fold higher.
As for `CCC(CC)CNC(=O)C1CN(c2c3c(nc4ccnn24)CCNCC3)C1` [Example 37.88], the EC50 turned out to be 36 nM. This EC50 is about 5.9-fold lower than that of the compound before.
On to `O=C(C1CN(c2c3c(nc4ccnn24)CCNCC3)C1)N1CC[C@H]2CCCC[C@@H]2C1` [Example 31.130], for which a half-maximal effect (EC50) was put at 57 nM. Against the preceding compound, the EC50 is about 1.6-fold higher.
Compound `O=C(C1CN(c2c3c(nc4ccnn24)CCNCC3)C1)N1CCC(c2ccccc2)(c2ccccc2)CC1` [Example 31.72] returned an EC50 of 819 nM.
In the case of `CC(C)c1ccc(CN(C)C(=O)C2CN(c3c4c(nc5ccnn35)CCNCC4)C2)cc1` [Example 31.163], the midpoint of the response, the EC50, lay at 108 nM. This EC50 is about 7.6-fold lower than that of the compound before.
In turn, `CN(Cc1ccccc1)C(=O)C1CN(c2c3c(nc4ccnn24)CCNCC3)C1` [Example 31.19] had an EC50 of 50 nM. Against the preceding compound, the EC50 is about 2.2-fold lower.
Regarding `CN1CCc2nc3ccnn3c(N3CC(C(=O)N4CCNCC4)C3)c2CC1` [Example 36.57], the midpoint of the response, the EC50, lay at 287 nM. This EC50 is about 5.7-fold higher than that of the compound before.
`c1ccc2c(c1)OCCN2c1c2c(nc3ccnn13)CCNCC2` [Example 1.39] displayed an EC50 of 2580 nM.
The value for `CN(Cc1ccc(C(F)(F)F)cc1)C(=O)C1CN(c2c3c(nc4ccnn24)CCNCC3)C1` [Example 31.87] was 36 nM.
The value for `Cc1cnn2c(N3CC(C(=O)N4CCC5(CCCCC5)CC4)C3)c3c(nc12)CCNCC3` [Example 31.235] was 84 nM.
With `O=C(C1CN(c2c3c(nc4ccnn24)CCNCC3)C1)N1CC[C@H](Oc2ccccc2)C1` [Example 31.212], the midpoint of the response, the EC50, lay at 34 nM.
Compound `CN(C(=O)C1CN(c2c3c(nc4ccnn24)CCNCC3)C1)C1CCCC1` [Example 31.12] had an EC50 of 820 nM.
Regarding `Fc1ccc(OCC2CN(c3c4c(nc5ccnn35)CCNCC4)C2)cc1Cl` [Example 15.11], a half-maximal effect (EC50) was put at 20 nM.
As for `FC(F)(F)Oc1ccccc1OC1CN(c2c3c(nc4ccnn24)CCNCC3)C1` [Example 35.18], the response was half-maximal at 636 nM (EC50).
Regarding `O=C(Nc1ccccc1)C1CN(c2c3c(nc4ccnn24)CCNCC3)C1` [Example 31.16], it took 2390 nM to reach a half-maximal effect (EC50).
Compound `c1ccc(OC2CN(c3c4c(nc5ccnn35)CCNCC4)C2)nc1` [Example 20.6] gave a concentration giving a half-maximal response (EC50) of 38 nM.
The compound `O=C(C1CN(c2c3c(nc4ccnn24)CCNCC3)C1)N1CCCCCC1` [Example 31.142] registered an EC50 of 186 nM.
Turning to `Cc1cc(Cl)ccc1OC1CN(c2c3c(nc4ccnn24)CCNCC3)C1` [Example 35.20], the 50% effective concentration (EC50) was found to be 326 nM.
`Cc1cnn2c(N3CC(C(=O)N4CCc5cc(F)ccc54)C3)c3c(nc12)CCNCC3` [Example 31.245] returned a concentration giving a half-maximal response (EC50) of 26 nM.
`O=C(C1CN(c2c3c(nc4ccnn24)CCNCC3)C1)N1CCC(c2ccncc2)CC1` [Example 31.182] returned an EC50 of 9 nM.
Compound `COc1cccc(COC2CN(c3c4c(nc5ccnn35)CCNCC4)C2)c1` [Example 20.13] registered a concentration giving a half-maximal response (EC50) of 347 nM.
The value for `Cc1ccc(CN(C)C(=O)C2CN(c3c4c(nc5ccnn35)CCNCC4)C2)cc1` [Example 31.50] was 51 nM.
Take `CCC1CCN(C(=O)C2CN(c3c4c(nc5ccnn35)CCNCC4)C2)CC1` [Example 31.68]: it took 46 nM to reach a half-maximal effect (EC50).
The value for `O=C(C1CN(c2c3c(nc4ccnn24)CCNCC3)C1)N1CCC(Oc2ccccc2)CC1` [Example 31.154] was 40 nM; that for `O=C(C1CN(c2c3c(nc4ccnn24)CCNCC3)C1)N1CCCC(c2ccccc2F)C1` (centres unmarked) [Example 31.117] was 291 nM; that for `CCCCN1CCN(C(=O)C2CN(c3c4c(nc5ccnn35)CCNCC4)C2)CC1=O` [Example 37.51] was 11 nM.
The value for `CN1CCc2nc3ccnn3c(N3CC(C(=O)N4CCN(C)CC4)C3)c2CC1` [Example 36.51] was 81 nM; that for `O=C(CC1CN(c2c3c(nc4ccnn24)CCNCC3)C1)N1CCc2ccccc21` [Example 33.1] was 19 nM.
The value for `CN1CCc2nc3ccnn3c(N3CC(C(=O)NCCCC(F)(F)F)C3)c2CC1` [Example 36.47] was 130 nM; that for `O=C(C1CN(c2c3c(nc4ccnn24)CCNCC3)C1)N1CC[C@@H]2CCCC[C@@H]2C1` [Example 31.131] was 74 nM; that for `CN(Cc1ccc(Br)cc1)C(=O)C1CN(c2c3c(nc4ccnn24)CCNCC3)C1` [Example 31.80] was 30 nM.
On to `c1cc2nc3c(c(N4CCCOCC4)n2n1)CCNCC3` [Example 1, 10-[1,4]Oxazepan-4-yl-6,7,8,9-tetrahydro-5H-1,4,7,10a-tetraaza-cyclohepta[f]indene], for which the 50% effective concentration (EC50) stood at 908 nM.
Compound `O=C(NCc1ccccc1)C1CCCN(c2c3c(nc4ccnn24)CCNCC3)C1` (centres unmarked) [Example 1.22] came in with an EC50 of 1410 nM. Against the preceding compound, the EC50 is about 1.6-fold higher.
The value for `Fc1cc(F)c2nc(C3CN(c4c5c(nc6ccnn46)CCNCC5)C3)[nH]c2c1` [Example 34.24] was 136 nM.
On to `Fc1ccc(OC2CN(c3c4c(nc5ccnn35)CCNCC4)C2)cc1F` [Example 35.55], for which the midpoint of the response, the EC50, lay at 115 nM.
